Species: Rattus norvegicus
Assay: DrugMatrix - Regimen: Daily Repeat
Type: toxicity, organism-based, Sprague-Dawley
Set-up: regimen Daily Repeat, gender Male, age 6-8 weeks
Details: in vivo, sc, route subcutaneous, […]; for ABSOLUTE BASOPHIL / ABSOLUTE EOSINOPHIL / ABSOLUTE LYMPHOCYTE / ABSOLUTE MONOCYTE / ABSOLUTE SEGMENTED NEUTROPHIL / BASOPHIL / EOSINOPHIL / ERYTHROCYTE COUNT / HEMATOCRIT / HEMOGLOBIN / LEUKOCYTE COUNT / LYMPHOCYTE / MEAN CORPUSCULAR HEMOGLOBIN / MEAN CORPUSCULAR HEMOGLOBIN CONCENTRATION / MEAN CORPUSCULAR VOLUME / MONOCYTE / NEUTROPHIL / NUCLEATED RED BLOOD CELLS / PLATELET COUNT: tissue Blood; for ALANINE AMINOTRANSFERASE / ALBUMIN / ALKALINE PHOSPHATASE / ASPARTATE AMINOTRANSFERASE / BLOOD UREA NITROGEN / CARBON DIOXIDE / CHLORIDE / CHOLESTEROL / CREATINE PHOSPHOKINASE / CREATININE / GLUCOSE / LACTATE DEHYDROGENASE / LIPASE / PHOSPHORUS / POTASSIUM / SODIUM / TOTAL BILIRUBIN / TOTAL PROTEIN / URIC ACID: tissue Plasma
[1] = 0 mg/kg, 72 h, dose level Control, time 3 day
[2] = 0 mg/kg, 120 h, dose level Control, time 5 day
[3] = 150 mg/kg, 72 h, dose level High, time 3 day

`CN(Cc1ccc(C(C)(C)C)cc1)Cc1cccc2ccccc12` [BUTENAFINE] was tested, and the “ABSOLUTE BASOPHIL” value [1] was 0 CELLS/uL, the “ABSOLUTE EOSINOPHIL” value [1] was 0 CELLS/uL and the “ABSOLUTE LYMPHOCYTE” value [1] was 10887 CELLS/uL. For the same compound, the “ABSOLUTE MONOCYTE” value [1] was 56 CELLS/uL, the “ABSOLUTE SEGMENTED NEUTROPHIL” value [1] was 1057 CELLS/uL and the BASOPHIL [1] was 0%. For the same compound, the EOSINOPHIL [1] was 0%, the “ERYTHROCYTE COUNT” value [1] was 5.31 x10E6/uL and the HEMATOCRIT [1] was 33.78%. For the same compound, the HEMOGLOBIN [1] was 13.4 G/DL, the “LEUKOCYTE COUNT” value [1] was 12 x10E3/uL and the LYMPHOCYTE [1] was 91.17%. The “MEAN CORPUSCULAR HEMOGLOBIN” value [1] was 25.25 pg, the “MEAN CORPUSCULAR HEMOGLOBIN CONCENTRATION” value [1] was 39.65 G/DL and the “MEAN CORPUSCULAR VOLUME” value [1] was 63.65 fL. For the same compound, the MONOCYTE [1] was 0.5%, the NEUTROPHIL [1] was 8.33% and the “NUCLEATED RED BLOOD CELLS” value [1] was 0 /100WBC. The “PLATELET COUNT” value [1] was 1142 x10E3/uL, the “ALANINE AMINOTRANSFERASE” value [1] was 57.17 u/L and the ALBUMIN [1] was 4.28 G/DL. The “ALKALINE PHOSPHATASE” value [1] was 425.83 u/L, the “ASPARTATE AMINOTRANSFERASE” value [1] was 93.83 u/L and the “BLOOD UREA NITROGEN” value [1] was 14.17 mg/dL. For the same compound, the “CARBON DIOXIDE” value [1] was 33.5 mmol/L, the CHLORIDE [1] was 100 MEQ/L and the CHOLESTEROL [1] was 70.33 mg/dL. The “CREATINE PHOSPHOKINASE” value [1] was 438.67 u/L, the CREATININE [1] was 0.19 mg/dL and the GLUCOSE [1] was 138.5 mg/dL. The “LACTATE DEHYDROGENASE” value [1] was 190.17 u/L, the LIPASE [1] was 9.83 u/L and the PHOSPHORUS [1] was 11.05 mg/dL. For the same compound, the POTASSIUM [1] was 6.59 MEQ/L, the SODIUM [1] was 143.58 MEQ/L and the “TOTAL BILIRUBIN” value [1] was 0.22 mg/dL. The “TOTAL PROTEIN” value [1] was 6.15 G/DL, the “URIC ACID” value [1] was 1.3 mg/dL and the “ABSOLUTE BASOPHIL” value [2] was 0 CELLS/uL. For the same compound, the “ABSOLUTE EOSINOPHIL” value [2] was 91.17 CELLS/uL, the “ABSOLUTE LYMPHOCYTE” value [2] was 11847.67 CELLS/uL and the “ABSOLUTE MONOCYTE” value [2] was 172.83 CELLS/uL. The “ABSOLUTE SEGMENTED NEUTROPHIL” value [2] was 1105 CELLS/uL, the BASOPHIL [2] was 0% and the EOSINOPHIL [2] was 0.67%. For the same compound, the “ERYTHROCYTE COUNT” value [2] was 5.35 x10E6/uL, the HEMATOCRIT [2] was 33.65% and the HEMOGLOBIN [2] was 13.42 G/DL. The “LEUKOCYTE COUNT” value [2] was 13.22 x10E3/uL, the LYMPHOCYTE [2] was 89.83% and the “MEAN CORPUSCULAR HEMOGLOBIN” value [2] was 25.12 pg. For the same compound, the “MEAN CORPUSCULAR HEMOGLOBIN CONCENTRATION” value [2] was 39.9 G/DL, the “MEAN CORPUSCULAR VOLUME” value [2] was 63 fL and the MONOCYTE [2] was 1.33%. For the same compound, the NEUTROPHIL [2] was 8.17%, the “NUCLEATED RED BLOOD CELLS” value [2] was 0 /100WBC and the “PLATELET COUNT” value [2] was 1347.83 x10E3/uL. The “ALANINE AMINOTRANSFERASE” value [2] was 50 u/L, the ALBUMIN [2] was 4.1 G/DL and the “ALKALINE PHOSPHATASE” value [2] was 329.17 u/L. The “ASPARTATE AMINOTRANSFERASE” value [2] was 77.17 u/L, the “BLOOD UREA NITROGEN” value [2] was 16.83 mg/dL and the “CARBON DIOXIDE” value [2] was 34.83 mmol/L. For the same compound, the CHLORIDE [2] was 99.83 MEQ/L, the CHOLESTEROL [2] was 75.67 mg/dL and the “CREATINE PHOSPHOKINASE” value [2] was 295.83 u/L. For the same compound, the CREATININE [2] was 0.18 mg/dL, the GLUCOSE [2] was 156.33 mg/dL and the “LACTATE DEHYDROGENASE” value [2] was 166.83 u/L. For the same compound, the LIPASE [2] was 9.83 u/L, the PHOSPHORUS [2] was 12.18 mg/dL and the POTASSIUM [2] was 6.69 MEQ/L. For the same compound, the SODIUM [2] was 143.97 MEQ/L, the “TOTAL BILIRUBIN” value [2] was 0.22 mg/dL and the “TOTAL PROTEIN” value [2] was 6.05 G/DL. The “URIC ACID” value [2] was 1.6 mg/dL, the “ABSOLUTE BASOPHIL” value [3] was 0 CELLS/uL and the “ABSOLUTE EOSINOPHIL” value [3] was 0 CELLS/uL. The “ABSOLUTE LYMPHOCYTE” value [3] was 11405 CELLS/uL, the “ABSOLUTE MONOCYTE” value [3] was 88.33 CELLS/uL and the “ABSOLUTE SEGMENTED NEUTROPHIL” value [3] was 1473.33 CELLS/uL. The BASOPHIL [3] was 0%, the EOSINOPHIL [3] was 0% and the “ERYTHROCYTE COUNT” value [3] was 5.31 x10E6/uL. The HEMATOCRIT [3] was 33.8%, the HEMOGLOBIN [3] was 13.6 G/DL and the “LEUKOCYTE COUNT” value [3] was 12.97 x10E3/uL. For the same compound, the LYMPHOCYTE [3] was 88%, the “MEAN CORPUSCULAR HEMOGLOBIN” value [3] was 25.63 pg and the “MEAN CORPUSCULAR HEMOGLOBIN CONCENTRATION” value [3] was 40.27 G/DL. For the same compound, the “MEAN CORPUSCULAR VOLUME” value [3] was 63.67 fL, the MONOCYTE [3] was 0.67% and the NEUTROPHIL [3] was 11.33%. For the same compound, the “NUCLEATED RED BLOOD CELLS” value [3] was 0 /100WBC, the “PLATELET COUNT” value [3] was 1396 x10E3/uL and the “ALANINE AMINOTRANSFERASE” value [3] was 55 u/L. The ALBUMIN [3] was 3.97 G/DL, the “ALKALINE PHOSPHATASE” value [3] was 429.67 u/L and the “ASPARTATE AMINOTRANSFERASE” value [3] was 77.33 u/L. The “BLOOD UREA NITROGEN” value [3] was 15.67 mg/dL, the “CARBON DIOXIDE” value [3] was 31.67 mmol/L and the CHLORIDE [3] was 101.67 MEQ/L. The CHOLESTEROL [3] was 73 mg/dL, the “CREATINE PHOSPHOKINASE” value [3] was 247 u/L and the CREATININE [3] was 0.17 mg/dL. The GLUCOSE [3] was 147.33 mg/dL, the “LACTATE DEHYDROGENASE” value [3] was 229.67 u/L and the LIPASE [3] was 9 u/L. For the same compound, the PHOSPHORUS [3] was 13.73 mg/dL, the POTASSIUM [3] was 6.88 MEQ/L and the SODIUM [3] was 145.7 MEQ/L. The “TOTAL BILIRUBIN” value [3] was 0.2 mg/dL, the “TOTAL PROTEIN” value [3] was 5.73 G/DL and the “URIC ACID” value [3] was 1.4 mg/dL.

From ChEMBL document CHEMBL3885881, “DrugMatrix”
